“Also recorded” adds a separate entry of the source.

Series [1] can be described thus: Phase 1 dose escalation in advanced systemic mastocytosis (NCT02561988). It counts as in vivo. As to conditions: patients with advanced systemic mastocytosis, Phase 1 study, oral. The text has this: (§1) This is a Phase 1, open-label, study designed to evaluate the safety, tolerability, PK, PD, and preliminary antineoplastic activity of Compound (I), administered orally, in adult patients with advanced systemic mastocytosis (AdvSM) and relapsed or refractory myeloid malignancies.
(§2) The study consists of 2 parts: dose-escalation (Part 1) and expansion (Part 2). Approximately 25 patients were in Part 1 and approximately 55 patients were in Part 2.
Patients with AdvSM or a relapsed or refractory myeloid malignancy were enrolled in the dose escalation part of the study. A 3+3 dose-escalation design using cohorts of 3 patients were employed.
The first cohort of patients received Compound (I) at a starting dose of 30 mg once daily (QD). Dose escalation proceeded at increments up to 100% until ≥1 patient treated at a given dose level has a ≥Grade 2 non-hematologic AE or a Grade 4 hematologic AE and the AE (non-hematologic or hematologic) was not clearly attributable to a cause other than Compound (I) or the dose exceeds the highest dose determined to be safe in the ongoing Compound (I) first-in-human (FIH) study in GIST, BLU-285-1101.
Three patients were enrolled initially in each cohort and an additional 3 patients (for a total of 6) were enrolled when the cohort requires expansion due to dose-limiting toxicity (DLT). […]

Series [2] deals with KIT D816V (Homo sapiens, UniProt P10721, D816V). Nature of the series: Activity against KIT D816V in vitro. It counts as biochemical.
The nature of series [3]: Toxicology and safety pharmacology studies. It counts as in vivo. To be noted: at active doses.
Series [4] relates to tyrosine kinase inhibitor (TKI)-resistant mastocytoma model. As to the kind of experiment: TKI-resistant mastocytoma model in vivo.
The test system of series [5] is eosinophils. As to the kind of experiment: Measurement of absolute eosinophils in Phase 1 clinical trial patients (routine blood test at C1D15). It counts as in vivo, human. As to conditions: adult patients with AdvSM, oral Compound (I) 30 mg to 400 mg QD, C1D15 (after 2 weeks), baseline absolute eosinophil count >0.5, FIGS. 1-4. Here is the method:
The dose range of Compound (I) is between 30 mg and 400 mg. The patients with baseline absolute eosinophil count of >0.5.
The patients with baseline absolute eosinophil count of >0.5.
The dose range of Compound (I) is between 200 mg and 300 mg. The patients with baseline absolute eosinophil count of >0.5.
as §1, §2
A treatment cycle is 28 days in duration. Patients presented to the study center on C1D1 for the first dose of study drug and serial PK sampling, PD sample collection, vital sign measurement, electrocardiogram (ECG) monitoring, patient general impression of symptom severity (PGIS) and European Organization for Research and Treatment of Cancer Core Quality of Life Questionnaire (EORTC QLQ-C30), safety monitoring and adverse event (AE) recording.
Eosinophils in patients were measured at C1D15 (cycle 1, day 15) via a routine blood test, see, e.g., LaGow B et al., eds. PDR Lab Advisor. A Comprehensive Point-of-Care Guide for Over 600 Lab Tests. 1st ed. […]

Sequence of KIT D816V (P10721 26-976 D816V): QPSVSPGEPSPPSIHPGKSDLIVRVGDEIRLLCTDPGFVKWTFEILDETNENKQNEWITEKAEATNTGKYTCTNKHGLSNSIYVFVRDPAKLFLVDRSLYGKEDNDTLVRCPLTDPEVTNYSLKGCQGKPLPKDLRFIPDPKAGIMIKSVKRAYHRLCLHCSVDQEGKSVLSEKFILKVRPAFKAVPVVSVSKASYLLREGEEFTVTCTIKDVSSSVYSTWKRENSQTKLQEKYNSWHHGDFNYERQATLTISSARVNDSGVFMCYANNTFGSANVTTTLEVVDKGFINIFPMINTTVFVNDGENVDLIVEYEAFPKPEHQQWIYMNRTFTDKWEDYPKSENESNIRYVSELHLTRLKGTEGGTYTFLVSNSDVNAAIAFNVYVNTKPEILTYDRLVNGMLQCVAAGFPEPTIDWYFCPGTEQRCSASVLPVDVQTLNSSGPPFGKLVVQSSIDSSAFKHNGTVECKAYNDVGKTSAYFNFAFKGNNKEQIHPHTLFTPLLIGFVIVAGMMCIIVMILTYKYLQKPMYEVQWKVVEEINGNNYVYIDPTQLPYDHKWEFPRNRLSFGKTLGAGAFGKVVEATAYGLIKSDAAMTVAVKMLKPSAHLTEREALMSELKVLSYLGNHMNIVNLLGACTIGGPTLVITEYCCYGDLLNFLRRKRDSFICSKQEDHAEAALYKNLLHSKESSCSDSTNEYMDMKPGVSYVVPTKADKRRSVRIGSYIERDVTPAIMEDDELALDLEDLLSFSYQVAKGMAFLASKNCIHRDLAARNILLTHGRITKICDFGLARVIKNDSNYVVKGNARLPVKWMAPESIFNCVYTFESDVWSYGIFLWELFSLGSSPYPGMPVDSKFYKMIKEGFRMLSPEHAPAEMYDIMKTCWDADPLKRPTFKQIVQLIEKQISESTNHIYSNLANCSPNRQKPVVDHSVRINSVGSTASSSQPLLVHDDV

For the compound `Cn1cc(-c2cc3c(N4CCN(c5ncc([C@@](C)(N)c6ccc(F)cc6)cn5)CC4)ncnn3c2)cn1` [Compound (I), (S)-1-(4-fluorophenyl)-1-(2-(4-(6-(1-methyl-1H-pyrazol-4-yl)pyrrolo[2,1-f][1,2,4]triazin-4-yl)piperazin-yl)pyrimidin-5-yl)ethan-1-amine], the “recommended Phase 2 dose (RP2D)” value in series [1] was 300 mg once a day (QD). The “activity against KIT D816V in vitro” value in series [2] was “potent and selective activity”. Moreover, in series [3], the tolerability entry is “tolerability at active doses”. In addition, the “growth inhibition in TKI-resistant mastocytoma model” value in series [4] is given as “robust growth inhibition”. Moreover, the “absolute eosinophil changes from baseline levels” value in series [5] was “significantly decreases number of absolute eosinophils; also recorded: effectively reduces eosinophil levels”.

For the origin of these results see patent US20240075041A1, “TREATMENT OF EOSINOPHILIC DISORDERS WITH AVAPRITINIB” (Blueprint Medicines Corporation, priority 2019, published 2024).
